Converted amounts (≈) assume the structure as drawn.
What follows are molecules tested on Mycobacterium tuberculosis (assay: Antimycobacterial activity against log phase culture of Mycobacterium tuberculosis H37Rv by agar dilution method).
Assay type: functional
`CN1C[C@H](c2ccccc2)[C@]2(CCC/C(=C\c3ccccc3)C2=O)[C@]12C(=O)c1cccc3cccc2c13` gave an MIC of 12.5 µg/mL (≈ 25.8 µM).
`CN1C[C@H](c2cccc3ccccc23)[C@]2(CCC/C(=C\c3cccc4ccccc34)C2=O)[C@]12C(=O)c1cccc3cccc2c13` showed an MIC of 6.25 µg/mL (≈ 10.7 µM).
Work on `Cc1ccccc1/C=C1\CCC[C@@]2(C1=O)[C@@H](c1ccccc1C)[C@H](c1ccccc1)N[C@@]21C(=O)c2cccc3cccc1c23` yielded an MIC of 1.78 µg/mL (≈ 3.1 µM).
`O=C1c2cccc3cccc(c23)[C@]12N1CSC[C@H]1[C@H](c1ccccc1Cl)[C@]21CCC/C(=C\c2ccccc2Cl)C1=O` showed an MIC of 0.78 µg/mL (≈ 1.31 µM).
In the case of `O=C1c2cccc3cccc(c23)[C@]12N[C@@H](c1ccccc1)[C@H](c1ccc(Cl)cc1)[C@]21CCC/C(=C\c2ccc(Cl)cc2)C1=O`, the MIC is reported as 6.25 µg/mL (≈ 10.2 µM).
`O=C1c2cccc3cccc(c23)[C@]12N1CCC[C@H]1[C@H](c1ccccc1Cl)[C@]21CCC/C(=C\c2ccccc2Cl)C1=O` gave an MIC of 3.13 µg/mL (≈ 5.41 µM).
In the case of `Cc1ccc(/C=C2\CCC[C@@]3(C2=O)[C@@H](c2ccc(C)cc2)CN(C)[C@@]32C(=O)c3cccc4cccc2c34)cc1`, the MIC is reported as 25 µg/mL (≈ 48.9 µM).
`O=C1c2cccc3cccc(c23)[C@]12N[C@@H](c1ccccc1)[C@H](c1ccc(Cl)cc1Cl)[C@]21CCC/C(=C\c2ccc(Cl)cc2Cl)C1=O` showed an MIC of 0.4 µg/mL (≈ 0.585 µM).
With `O=C1c2cccc3cccc(c23)[C@]12N[C@@H](c1ccccc1)[C@H](c1ccccc1)[C@]21CCC/C(=C\c2ccccc2)C1=O` the MIC was 3.13 µg/mL (≈ 5.74 µM).
With `Cc1ccccc1/C=C1\CCC[C@@]2(C1=O)[C@@H](c1ccccc1C)[C@@H]1CSCN1[C@@]21C(=O)c2cccc3cccc1c23` the MIC was 0.78 µg/mL (≈ 1.4 µM).
`Cc1ccccc1/C=C1\CCC[C@@]2(C1=O)[C@@H](c1ccccc1C)CN(C)[C@@]21C(=O)c2cccc3cccc1c23` was tested, and the MIC was 12.5 µg/mL (≈ 24.4 µM).
`CN1C[C@H](c2ccccc2Cl)[C@]2(CCC/C(=C\c3ccccc3Cl)C2=O)[C@]12C(=O)c1cccc3cccc2c13` showed an MIC of 6.25 µg/mL (≈ 11.3 µM).
Work on `CN1C[C@H](c2ccc(Cl)cc2)[C@]2(CCC/C(=C\c3ccc(Cl)cc3)C2=O)[C@]12C(=O)c1cccc3cccc2c13` yielded an MIC of 12.5 µg/mL (≈ 22.6 µM).
Molecule `O=C1c2cccc3cccc(c23)[C@]12N1CCC[C@H]1[C@H](c1ccc(Cl)cc1)[C@]21CCC/C(=C\c2ccc(Cl)cc2)C1=O` has an MIC of 1.78 µg/mL (≈ 3.08 µM).
For `O=C1c2cccc3cccc(c23)[C@]12N[C@@H](c1ccccc1)[C@H](c1ccccc1Cl)[C@]21CCC/C(=C\c2ccccc2Cl)C1=O`, the MIC was 0.78 µg/mL (≈ 1.27 µM).
For `Cc1ccc(/C=C2\CCC[C@@]3(C2=O)[C@@H](c2ccc(C)cc2)[C@@H]2CSCN2[C@@]32C(=O)c3cccc4cccc2c34)cc1`, the MIC was 6.25 µg/mL (≈ 11.2 µM).
Work on `Cc1ccc(/C=C2\CCC[C@@]3(C2=O)[C@@H](c2ccc(C)cc2)[C@H](c2ccccc2)N[C@@]32C(=O)c3cccc4cccc2c34)cc1` yielded an MIC of 6.25 µg/mL (≈ 10.9 µM).
Molecule `CN1C[C@H](c2ccc(Cl)cc2Cl)[C@]2(CCC/C(=C\c3ccc(Cl)cc3Cl)C2=O)[C@]12C(=O)c1cccc3cccc2c13` has an MIC of 3.13 µg/mL (≈ 5.04 µM).
Molecule `CN1C[C@H](c2cccc(F)c2)[C@]2(CCC/C(=C\c3cccc(F)c3)C2=O)[C@]12C(=O)c1cccc3cccc2c13` has an MIC of 12.5 µg/mL (≈ 24.1 µM).
`O=C1c2cccc3cccc(c23)[C@]12N1CSC[C@H]1[C@H](c1ccccc1)[C@]21CCC/C(=C\c2ccccc2)C1=O` showed an MIC of 6.25 µg/mL (≈ 11.8 µM).
Work on `O=C1c2cccc3cccc(c23)[C@]12N1CSC[C@H]1[C@H](c1ccc(Cl)cc1)[C@]21CCC/C(=C\c2ccc(Cl)cc2)C1=O` yielded an MIC of 6.25 µg/mL (≈ 10.5 µM).
Molecule `O=C1c2cccc3cccc(c23)[C@]12N[C@@H](c1ccccc1)[C@H](c1ccc(F)cc1)[C@]21CCC/C(=C\c2ccc(F)cc2)C1=O` has an MIC of 6.25 µg/mL (≈ 10.7 µM).
`O=C1c2cccc3cccc(c23)[C@]12N1CCC[C@H]1[C@H](c1ccccc1)[C@]21CCC/C(=C\c2ccccc2)C1=O` showed an MIC of 12.5 µg/mL (≈ 24.5 µM).
`O=C1c2cccc3cccc(c23)[C@]12N1CSC[C@H]1[C@H](c1ccc(Cl)cc1Cl)[C@]21CCC/C(=C\c2ccc(Cl)cc2Cl)C1=O` gave an MIC of 0.4 µg/mL (≈ 0.601 µM).
Work on `Cc1ccc(/C=C2\CCC[C@@]3(C2=O)[C@@H](c2ccc(C)cc2)[C@@H]2CCCN2[C@@]32C(=O)c3cccc4cccc2c34)cc1` yielded an MIC of 6.25 µg/mL (≈ 11.6 µM).
`COc1ccc(/C=C2\CCC[C@@]3(C2=O)[C@@H](c2ccc(OC)cc2)CN(C)[C@@]32C(=O)c3cccc4cccc2c34)cc1` was tested, and the MIC was 25 µg/mL (≈ 46 µM).
With `O=C1c2cccc3cccc(c23)[C@]12N1CSC[C@H]1[C@H](c1ccc(F)cc1)[C@]21CCC/C(=C\c2ccc(F)cc2)C1=O` the MIC was 1.76 µg/mL (≈ 3.12 µM).
With `O=C1c2cccc3cccc(c23)[C@]12N1CCC[C@H]1[C@H](c1ccc(F)cc1)[C@]21CCC/C(=C\c2ccc(F)cc2)C1=O` the MIC was 1.78 µg/mL (≈ 3.26 µM).
